Consider 30 compounds from patent US9127024B2 (Intrexon Corporation, priority 2013, dated 2015).

SMILES strings stand for the structures. Like-named read-outs stand apart in the source and are kept apart here.

Usually EC50 stands for the concentration at which the effect is half-maximal. The AUC(0-t) is the area under the concentration-time curve up to a stated or last time point. As usually defined, the Cmax is the peak of the concentration-time curve. A word on the Tmax: it is the time from dosing to the highest level. As usually defined, the half-life is the time needed for the level to fall by half in the phase considered.

Data set [1] deals with RheoSwitch® (CHO-K1_RS-1 cells, firefly Luciferase reporter) (Choristoneura fumiferana, UniProt O77240). In words: in vitro gene switch assay (fLUC Luciferase expression, potency screen). In kind it is cell-based. From the text: Gene switch assays are disclosed, e.g., in U.S. Pat. Nos. 8,076,517; 7,456,315; 7,304,161; and 6,258,603.
RheoSwitch® (CHO-K1_RS-1 cells, firefly Luciferase reporter), sequence (O77240 1-513): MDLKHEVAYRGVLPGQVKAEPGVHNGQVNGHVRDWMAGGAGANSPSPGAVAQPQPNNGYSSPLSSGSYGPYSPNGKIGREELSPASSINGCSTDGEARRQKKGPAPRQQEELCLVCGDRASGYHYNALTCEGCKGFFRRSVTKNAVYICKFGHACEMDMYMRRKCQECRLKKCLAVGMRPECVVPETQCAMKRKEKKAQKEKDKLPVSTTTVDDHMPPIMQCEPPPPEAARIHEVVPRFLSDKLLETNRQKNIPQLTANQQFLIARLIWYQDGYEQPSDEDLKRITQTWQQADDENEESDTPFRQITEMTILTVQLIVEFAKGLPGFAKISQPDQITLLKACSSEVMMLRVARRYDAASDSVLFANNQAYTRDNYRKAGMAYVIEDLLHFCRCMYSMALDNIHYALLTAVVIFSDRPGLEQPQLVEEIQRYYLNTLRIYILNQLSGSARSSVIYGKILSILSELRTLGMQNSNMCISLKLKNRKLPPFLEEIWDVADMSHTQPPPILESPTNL
CHO-K1 cells were stably transfected with a plasmid (RS-1, FIG. 1) coding for firefly Luciferase (fLUC) under the control of the RheoSwitch® resulting in the stable cell line CHO-K1_RS-1. A master cell bank was created containing approximately 100 vials at 5×10^6 cells per vial. One vial of CHO-K1_RS-1 was thawed and cultured for two weeks prior to each in vitro potency screening.
Twenty-four (24) hours prior to treatment with the control and test compounds the CHO-K1_RS-1 cells were seeded into white-opaque 384-well cell culture plates at 3,600 cells per well in 30 μl of culture medium. The cells were incubated in a humidified CO2 incubator at 37° C. until compound treatment.
Compounds were prepared at 25 mM in 100% dry DMSO and stored at room temperature in sealed 1 ml tubes prior to subsequent dilution and assay. On the day of cell treatment the tubes containing the control and test compounds were sorted and the ligands transferred to a 96-well polypropylene plate for subsequent dilution. The compounds were diluted in 100% dry DMSO in an 8-point, 10-fold dilution series ranging from 25 mM to 2.5 nM using the Biomek FX automated liquid handler.
The diluted compounds were then transferred to each well of 384-well polypropylene plate in quadruplicate resulting in a single 384-well plate with four replicates of each compound dilution in a different quadrant of the plate. Each well on the 384-well plate received 20 μl of diluted compound. The 384-well plates containing diluted compound and the plates containing cells in culture were loaded onto the Biomek FX and 30 nl of compound was delivered to each well containing cells using a 384-pin V&P Scientific Pin Tool. The resulting 1000-fold dilution (30 nl to 30 μl) generated a final dosing range of 25 μM to 2.5 pM in 0.1% DMSO. Two replicate plates were produced to supply a dedicated plate for the Luciferase expression assay and the APH cell viability assay.
The cells were incubated with the compound for 24 hours in a humidified CO2 incubator at 37° C. Following incubation, the cells were assayed for Luciferase expression (fLUC assay) using the Steady Glo assay from Promega. Cells were equilibrated to room temperature for 15 minutes prior to reagent addition. Thirty micro liters (30 μl) of assay reagent was added to each well of the 384-well plate using the Biomek FX. The reagent was incubated with the cells for 10-120 minutes prior to reading on a Molecular Devices Spectramax L luminometer. The assay reagents were prepared as per the manufacturer's instructions.
The Luciferase expression data was normalized to the baseline signal from cells treated with DMSO alone. The ratio of signal from treated cells to vehicle-treated cells was plotted and non-linear regress was performed using Graph Pad Prism software. EC50, (log)EC50 and Hill slope data was generated. Reporter gene expression, e.g., luciferase expression, serves as a proxy for the expression of a gene of interest. See, e.g., US 2009/0123441 and WO 2011/119773.

Data set [2] can be described thus: Pharmacokinetic (PK) study, oral gavage, plasma LC-MS/MS. The following applies: female Sprague Dawley rats, oral gavage 10 mg/kg, Capryol 90/Triacetin (1:1, v/v); for AUC(0-t) / Cmax / Tmax / half-life: female, Sprague Dawley, rat, po, 10 mg/kg; for AUC(0-t): AUC0−t; for Clearance: oral clearance.
Method: Female Sprague Dawley rats were fasted for at least 8 hours (overnight) prior to oral dosing of the compound via gavage (10 mg/kg; vehicle=2 mg/mL of Capryol 90/Triacetin (1:1, v/v); 3 animals/compound) and weighed prior to dosing. The correct volume of the appropriate formulation was administered based on that day's (animal) body weight. Body weight, dose volume, and dosing time was recorded for each animal. Animals were not fed for at least 4 hours following activator ligand administration.
Approximately 200 μL/blood sample was collected from the catheter sample points in EDTA tubes at each time point from each animal. The exact time of blood collection was recorded for each animal Blood samples were held at 4° C. (wet ice) starting immediately after collection and were centrifuged within 15 minutes from the collection for 12 minutes at 2500 rpm. After centrifugation, plasma samples were stored at ^−80° C. until assay. Sample times were as follows: Day 0: 0, 0.5, 1, 2, 3, 4, 6 and 8 hours; Day 1: 24 hours.
LC-MS/MS Method: Liquid chromatography tandem mass spectrometry with protein precipitation method was used to quantify the compound in rat plasma samples collected from all animals dosed with the ligand. Linearity range was from 1 ng/mL to 1000 ng/mL, with correlation coefficient for calibration curves above 0.99 and analyte quantified within ±15% of target at all calibrator concentrations.
The plasma ligand concentration was calculated by extrapolating the area under the curve values for the samples from the standard curve generated by the Analyst® software program. The ng/mL values for the plasma samples representing all the animals were used to generate the pharmacokinetic (PK) parameters.
The mark [3] stands for this setting: read-out: fLUC assay EC50, 24 hours with compound, 25 μM to 2.5 pM, figure in parentheses after a value not defined.
Setting [4] is: read-out: fLUC assay EC50 Run 1, 24 hours with compound, Run 1.
Setting [5] is: read-out: fLUC assay EC50 Run 2, 24 hours with compound, Run 2.

Turning to `CCC[C@@H](N(NC(=O)c1ccc(B(O)O)c(F)c1)C(=O)c1cc(C)cc(C)c1)C(C)(C)C` [Cpd. No. 22, (R)-(4-(2-(3,5-dimethylbenzoyl)-2-(2,2-dimethylhexan-3-yl)hydrazinecarbonyl)-2-fluorophenyl)boronic acid], the EC50 in data set [1] (setting [3]) is 0.105 µM. Also, in data set [2], the AUC(0-t) came out at 25000 ng·h/mL, the Cmax was found to be 2730 ng/mL, the Tmax stood at 3 h and the half-life is 5.6 h. The Clearance in data set [2] worked out at 6.78 mL/min/kg.
`CCC[C@@H](N(NC(=O)c1cccc(OC)c1CC)C(=O)c1cc(C)cc(C)c1)C(C)(C)C` [Cpd. B, reference compound]: in data set [2], the AUC(0-t) came out at 888 ng·h/mL, the concentration peaked (Cmax) at 116 ng/mL, the Tmax was 3.7 h and the half-life was 5.4 h. Also, in data set [2], the Clearance turned out to be 183.83 mL/min/kg.
Take `CCCCB1OCc2ccc(C(=O)NN(C(=O)c3ccccc3)C(C)(C)C)c(F)c21` [Cpd. No. 64, N′-benzoyl-N′-(tert-butyl)-1-butyl-7-fluoro-1,3-dihydrobenzo[c][1,2]oxaborole-6-carbohydrazide]: in data set [1] (setting [3]), the EC50 was more than 25 µM.
Consider `COCc1ccc(C(=O)NN(C(=O)c2cc(C)cc(C)c2)C(C)(C)C)c(F)c1B(O)O` [Cpd. No. 88, (3-(2-(tert-butyl)-2-(3,5-dimethylbenzoyl)hydrazine-1-carbonyl)-2-fluoro-6-(methoxymethyl)phenyl)boronic acid], for which the figures for the EC50 in data set [1] (setting [4]) and in data set [1] (setting [5]) were 0.667 µM and 0.84 µM, respectively.
Regarding `CCC(C)(C)N(NC(=O)c1ccc2c(c1C)OCCOB2O)C(=O)c1cc(C)cc(C)c1` [compound 76], in data set [1] (setting [3]), the EC50 turned out to be 0.358 µM.
As to `CC[C@@H](N(NC(=O)c1cccc(OC)c1C)C(=O)c1cc(C)cc(B2OC(C)(C)C(C)(C)O2)c1)C(C)(C)C` [compound 39], the EC50 in data set [1] (setting [3]) is 0.168 µM.
The same measure, in the same setting: under `Cc1cc(C)cc(C(=O)N(NC(=O)c2cccc(B(O)O)c2Cl)C(C)(C)C)c1` [Cpd. No. 3] stands 1.66 µM; under `[2H]C([2H])([2H])c1cc(C(=O)N(NC(=O)c2ccc3c(c2C)OCCOB3O)C(C)(C)CC)cc(C([2H])([2H])[2H])c1` [compound 77], 0.181 µM.
`Cc1cc(Cl)cc(C(=O)N(CC(C)(C)C)NC(=O)c2ccc3c(c2C)OCCOB3O)c1` [compound 72]: the EC50 in data set [1] (setting [3]) amounted to 0.443 µM.
With `CC[C@@H](N(NC(=O)c1cccc(OC)c1C)C(=O)c1cc(C)cc(B(O)O)c1)C(C)(C)C` [Cpd. No. 33, (R)-(3-(1-(2,2-dimethylpentan-3-yl)-2-(3-methoxy-2-methylbenzoyl)hydrazinecarbonyl)-5-methylphenyl)boronic acid], the concentration for a half-maximal effect (EC50) in data set [1] (setting [3]) is 0.191 µM.
Consider `COCc1ccc(C(=O)NN(C(=O)c2cc(C)cc(C)c2)C(C)(C)C)c(F)c1B1OC(C)(C)C(C)(C)O1` [Cpd. No. 94, N′-(tert-butyl)-N′-(3,5-dimethylbenzoyl)-2-fluoro-4-(methoxymethyl)-3-(4,4,5,5-tetramethyl-1,3,2-dioxaborolan-2-yl)benzohydrazide], for which the EC50 in data set [1] (setting [4]) was 0.778 µM; in data set [1] (setting [5]), 1.65 µM.
Consider `CCC[C@@H](N(NC(=O)c1cccc(OC)c1C)C(=O)c1cc(C)cc(C)c1)C(C)(C)C` [Cpd. A, reference compound], for which, in data set [2], the AUC(0-t) was 773 ng·h/mL, the maximum concentration (Cmax) amounted to 255 ng/mL, the time to peak (Tmax) worked out at 4 h and the half-life is 2.1 h. Also, the Clearance in data set [2] is 213.1 mL/min/kg.
In the case of `CCC(c1ccccc1)N(NC(=O)c1ccc(B(O)O)cc1F)C(=O)c1cc(C)cc(C)c1` (racemic) [compound 19], the EC50 in data set [1] (setting [3]) was 0.258 µM.
Still for that read-out and setting: under `Cc1cc(C)cc(C(=O)N(CC(C)(C)C)NC(=O)c2ccc3c(c2C)OCCOB3O)c1` [compound 71] stands 0.43 µM; under `[2H]C([2H])([2H])c1cc(C(=O)N(NC(=O)c2ccc3c(c2C)OCCOB3O)[C@@H](CC)C(C)(C)C)cc(C([2H])([2H])[2H])c1` [compound 81], 0.564 µM; under `Cc1cc(C)cc(C(=O)N(NC(=O)c2ccc3c(c2F)COB3O)C(C)(C)C)c1` [Cpd. No. 65, N′-(tert-butyl)-N′-(3,5-dimethylbenzoyl)-4-fluoro-1-hydroxy-1,3-dihydrobenzo[c][1,2]oxaborole-5-carbohydrazide], 3.18 µM.
Take `CC[C@H](N(NC(=O)c1ccc2c(c1)B(O)OC2)C(=O)c1cc(C)cc(C)c1)C(C)(C)C` [compound 53]: the EC50 in data set [1] (setting [3]) was 1 µM.
Turning to `CCC[C@@H](N(NC(=O)c1cccc(B(O)O)c1F)C(=O)c1cc(C)cc(C)c1)C(C)(C)C` [Cpd. No. 6], the EC50 in data set [1] (setting [3]) stood at 0.0927 µM.
On to `CCC[C@@H](N(NC(=O)c1ccc(B(O)O)cc1)C(=O)c1cc(C)cc(C)c1)C(C)(C)C` [Cpd. No. 8], for which, in data set [1] (setting [3]), the EC50 stood at 0.103 µM.
Still for that read-out and setting: for `CCC[C@@H](N(NC(=O)c1ccc(CCCB(O)O)c(OC)c1C)C(=O)c1cc(C)cc(C)c1)C(C)(C)C` [Cpd. No. 27, (R)-(3-(4-(2-(3,5-dimethylbenzoyl)-2-(2,2-dimethylhexan-3-yl)hydrazinecarbonyl)-2-methoxy-3-methyl-phenyl)propyl)boronic acid] the value was 0.27 µM; for `Cc1cc(C)cc(C(=O)N(NC(=O)c2ccc(B(O)O)cc2F)C(C)(C)C)c1` [compound 12], 0.271 µM.
Take `CC[C@@H](N(NC(=O)c1ccc(COC)c(B(O)O)c1F)C(=O)c1cc(C)cc(C)c1)C(C)(C)C` [Cpd. No. 86, (R)-(3-(2-(3,5-dimethylbenzoyl)-2-(2,2-dimethylpentan-3-yl)hydrazine-1-carbonyl)-2-fluoro-6-(methoxymethyl)phenyl)boronic acid]: the EC50 worked out at 0.0488 µM in data set [1] (setting [4]) and 0.0745 µM in data set [1] (setting [5]).
Regarding `CC[C@@H](N(NC(=O)c1ccc(B(O)O)cc1F)C(=O)c1cc(C)cc(C)c1)C(C)(C)C` [Cpd. No. 85, (R)-(4-(2-(3,5-dimethylbenzoyl)-2-(2,2-dimethylpentan-3-yl)hydrazine-1-carbonyl)-3-fluorophenyl)boronic acid], the EC50 in data set [1] (setting [4]) amounted to 0.0694 µM; in data set [1] (setting [5]) it was 0.0666 µM.
For the compound `CC[C@@H](N(NC(=O)c1ccc(B(O)O)cc1Cl)C(=O)c1cc(C)cc(C)c1)C(C)(C)C` [compound 20], the EC50 in data set [1] (setting [3]) was 0.183 µM.
Same read-out and setting: under `CCC(N(NC(=O)c1cccc(OC)c1C)C(=O)c1cccc(B(O)O)c1)C(C)(C)C` (racemic) [compound 32] stands 2.88 µM; under `[2H]C([2H])([2H])c1cc(C(=O)N(NC(=O)c2ccc3c(c2F)COB3O)C(C)(C)C)cc(C([2H])([2H])[2H])c1` [Cpd. No. 66, N′-(3,5-bis(methyl-d3)benzoyl)-N′-(tert-butyl)-4-fluoro-1-hydroxy-1,3-dihydrobenzo[c][1,2]oxaborole-5-carbohydrazide], 3.27 µM; under `CCCC(N(NC(=O)c1cccc(B2OC(C)(C)C(C)(C)O2)c1C)C(=O)c1cc(OC)ccc1OC)C(C)(C)C` (racemic) [compound 48], 22.2 µM.
In the case of `CCC[C@@H](N(NC(=O)c1c(F)cc(B(O)O)cc1F)C(=O)c1cc(C)cc(C)c1)C(C)(C)C` [Cpd. No. 24, (R)-(4-(2-(3,5-dimethylbenzoyl)-2-(2,2-dimethylhexan-3-yl)hydrazinecarbonyl)-3,5-difluorophenyl)boronic acid], the EC50 in data set [1] (setting [3]) amounted to 0.0857 µM.
On the same count and under the same terms, under `Cc1cc(C)cc(C(=O)N(NC(=O)c2ccc(B(O)O)c(F)c2)C(C)(C)C)c1` [Cpd. No. 23, (4-(2-(tert-butyl)-2-(3,5-dimethylbenzoyl) hydrazinecarbonyl)-2-fluorophenyl)boronic acid] stands 1.8 µM; under `Cc1cc(C)cc(C(=O)N(NC(=O)c2ccc3c(c2C)OB(O)CCC3)C(C)(C)C)c1` [Cpd. No. 69], 0.203 µM.
